Measured values published in EP0536208B1, “1,2-DIHYDRO-3H-DIBENZISOQUINOLINE-1,3-DIONE ANTICANCER AGENTS” (RESEARCH CORPORATION TECHNOLOGIES, INC., priority 1990, dated 1992).

Key:
Format in all cases: in vivo
[1] = test system: 16-C Mammary Adenocarcinoma; experiment: Tumor growth delay in mice, Mammary 16-C model; settings: 16-C Mammary Adenocarcinoma (Southern Research Institute)
Experimental: (§1) Corbett, T.H., et al., Cancer Chemo Rep., 5 (1975). Mammary 16-C Adenocarcinoma and M5-76 Sarcoma: Chunks of tumor (20-50 mg) are subcutaneously implanted into the flank of B6C3F1 female mice. Drugs (10-45 mg/kg) are dissolved in saline and injected intraperitoneally every four days for three times starting one day after tumor implantation. Tumors are measured bidimensionally as described above and tumor growth delay is calculated at times to reach 1.5 and 3.0 g of tumor mass.

[2] = test system: M5-76 Sarcoma; experiment: Tumor growth delay in mice, M5-76 sarcoma model; settings: -76 Sarcoma (Southern Research Institute)
Experimental: as §1

[3] = test system: P-388 lymphocytic leukemia; experiment: Survival study in tumor-bearing mice, P-388 leukemia model; settings: 10^6 cells in DBA mice; 16 mg/kg; d1,5,9; intraperitoneally
Description: Thus, in the lower level resistant cell lines, such as the ten-fold mitomycin C resistant L1210 and the tenfold adriamycin resistant 2780 ovarian cancer, Compound 1 maintained its complete activity as shown in Table II. The anti-tumor activity of compounds of the present invention in in vivo mouse murine models were studied. 3) Survival Studies In Tumor-Bearing Mice: 3.1 P-388 Leukemia Modles: One million P-388 leukemia cells originally obtained from American Type Culture Collection (Rockville, MD) are implanted into the peritoneum of adult DBA-2J male mice (Jackson Laboratories, Bar Harbor, ME). Twenty four hours later, drugs diluted in physiological saline are injected intraperitoneally at a volume of 0.1 mL/10 g body weight. The mice (10/group) are then followed for survival daily and compared to untreated tumor bearing mice. […] The perpendicular widths of the tumors are measured by caliper thrice weekly and converted to an estimated tumor mass according to the formula: ((1 X W)^2)/(2)= grams of tumor. [formula] wherein • W = width of tumor • l = length of tumor Tumor growth delay is calculated as the difference in days for tumors in treated mice to reach an estimated mass 750 mg or 1.5 g compared to that in untreated controls: Days to reach 750 mg (Treated - Control) = Days of Tumor Growth Delay [formula] […]

With `CN(C)CCN1C(=O)c2cccc3cc4ccccc4c(c23)C1=O` [Compound 1, 2-[2'-(dimethylamino)ethyl]-1,2-dihydro-3H-dibenz(deh)isoquinoline-1,3-dione] the “Experimental Activity, Days of Tumor Growth Delay” value [1] was 7 days TT, the “Experimental Activity, Days of Tumor Growth Delay” value [2] was 7 days and the “Experimental Activity, ILS (Percentage Increased Lifespan)” value [3] was 00:ILS*.
